This note sets out measurements from the supplement of paper PMC10307832.

Assay in all cases: relative viability (nuclei count vs DMSO), 5 days (fraction); higher = more cells survive
Compound in the assay “BI-D1870 + Palbociclib”: CC(C)CCN1c2nc(Nc3cc(F)c(O)c(F)c3)ncc2N(C)C(=O)C1C [BI-D1870] + CC(=O)c1c(C)c2cnc(Nc3ccc(N4CCNCC4)cn3)nc2n(C2CCCC2)c1=O [Palbociclib] (partner 0.5 µM)
A digest of the protocol: (§1)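 Lung cancer cell lines in 1536-well plates got either a single drug or a fixed anchor-drug dose together with five library-drug doses (not always all listed) in √10 steps, by pin tool, on the day after seeding. Nuclei were counted after 5 days, and relative viability is the treated-to-vehicle ratio of nuclei counts. Values are medians of duplicate plates.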

Compound in the assay “BI-D1870 + Alpelisib”: CC(C)CCN1c2nc(Nc3cc(F)c(O)c(F)c3)ncc2N(C)C(=O)C1C [BI-D1870] + Cc1nc(NC(=O)N2CCC[C@H]2C(N)=O)sc1-c1ccnc(C(C)(C)C(F)(F)F)c1 [Alpelisib] (partner 2 µM)
In a few lines:
as §1

Compound in the assay “Zebularine + Pictilisib”: O=c1ncccn1[C@@H]1O[C@H](CO)[C@@H](O)[C@H]1O [Zebularine] + CS(=O)(=O)N1CCN(Cc2cc3nc(-c4cccc5[nH]ncc45)nc(N4CCOCC4)c3s2)CC1 [Pictilisib] (partner 1 µM)
A digest of the protocol:
as §1

Compound in the assay “Zebularine + Pemetrexed”: O=c1ncccn1[C@@H]1O[C@H](CO)[C@@H](O)[C@H]1O [Zebularine] + Nc1nc2[nH]cc(CCc3ccc(C(=O)N[C@@H](CCC(=O)O)C(=O)O)cc3)c2c(=O)[nH]1 [Pemetrexed] (partner 0.2 µM)
In a few lines: as §1

With NCI-H1793, the relative viability was found to be 0.369 with BI-D1870 + Palbociclib (first compound 0.04 µM); 0.274 with BI-D1870 + Palbociclib (first compound 0.1265 µM); 0.291 with BI-D1870 + Palbociclib (first compound 0.4 µM); 0.391 with BI-D1870 + Palbociclib (first compound 1.265 µM); 0.318 in the assay with BI-D1870 + Palbociclib (first compound 4 µM); 0.647 with BI-D1870 + Alpelisib (first compound 0.04 µM). Also, the relative viability was determined as 0.607 with BI-D1870 + Alpelisib (first compound 0.1265 µM); 0.537 with BI-D1870 + Alpelisib (first compound 0.4 µM); 0.69 in the assay with BI-D1870 + Alpelisib (first compound 1.265 µM); 0.719 with BI-D1870 + Alpelisib (first compound 4 µM); 0.472 in the assay with Zebularine + Pictilisib (first compound 1 µM); 0.372 in the assay with Zebularine + Pictilisib (first compound 3.162 µM). For the same cell line, the relative viability with Zebularine + Pictilisib (first compound 10 µM) came out at 0.205; with Zebularine + Pictilisib (first compound 31.62 µM), 0.269; with Zebularine + Pictilisib (first compound 100 µM), 0.267; with Zebularine + Pemetrexed (first compound 1 µM), 1.08; with Zebularine + Pemetrexed (first compound 3.162 µM) it was 0.92; with Zebularine + Pemetrexed (first compound 10 µM), 0.292. In addition, the relative viability with Zebularine + Pemetrexed (first compound 31.62 µM) was 0.347; in the assay with Zebularine + Pemetrexed (first compound 100 µM), 0.287.
For the cell line LC-2-ad, the relative viability with BI-D1870 + Palbociclib (first compound 0.04 µM) turned out to be 0.577; with BI-D1870 + Palbociclib (first compound 0.1265 µM), 0.471; in the assay with BI-D1870 + Palbociclib (first compound 0.4 µM) it was 0.509; in the assay with BI-D1870 + Palbociclib (first compound 1.265 µM), 0.477; in the assay with BI-D1870 + Palbociclib (first compound 4 µM), 0.401; with BI-D1870 + Alpelisib (first compound 0.04 µM), 0.962. Further, the relative viability was determined as 0.836 in the assay with BI-D1870 + Alpelisib (first compound 0.1265 µM); 0.849 in the assay with BI-D1870 + Alpelisib (first compound 0.4 µM); 0.855 in the assay with BI-D1870 + Alpelisib (first compound 1.265 µM); 0.701 with BI-D1870 + Alpelisib (first compound 4 µM); 0.509 with Zebularine + Pictilisib (first compound 1 µM); 0.421 in the assay with Zebularine + Pictilisib (first compound 3.162 µM). The relative viability with Zebularine + Pictilisib (first compound 10 µM) is 0.399; in the assay with Zebularine + Pictilisib (first compound 31.62 µM), 0.258; in the assay with Zebularine + Pictilisib (first compound 100 µM) it was 0.158; with Zebularine + Pemetrexed (first compound 1 µM), 0.276; with Zebularine + Pemetrexed (first compound 3.162 µM) it was 0.289; in the assay with Zebularine + Pemetrexed (first compound 10 µM) it was 0.27. Besides, the relative viability with Zebularine + Pemetrexed (first compound 31.62 µM) came to 0.255; with Zebularine + Pemetrexed (first compound 100 µM), 0.259.
As for COR-L 105, the relative viability in the assay with BI-D1870 + Palbociclib (first compound 0.04 µM) was found to be 0.412; with BI-D1870 + Palbociclib (first compound 0.1265 µM), 0.395; in the assay with BI-D1870 + Palbociclib (first compound 0.4 µM), 0.407; in the assay with BI-D1870 + Palbociclib (first compound 1.265 µM) it was 0.41; in the assay with BI-D1870 + Palbociclib (first compound 4 µM), 0.425; with BI-D1870 + Alpelisib (first compound 0.04 µM), 1.2. Besides, the relative viability with BI-D1870 + Alpelisib (first compound 0.1265 µM) was determined as 0.803; with BI-D1870 + Alpelisib (first compound 0.4 µM) it was 1.29; in the assay with BI-D1870 + Alpelisib (first compound 1.265 µM) it was 1.09; in the assay with BI-D1870 + Alpelisib (first compound 4 µM) it was 1.05; with Zebularine + Pictilisib (first compound 1 µM), 0.388; in the assay with Zebularine + Pictilisib (first compound 3.162 µM), 0.381. In addition, the relative viability came to 0.373 with Zebularine + Pictilisib (first compound 10 µM); 0.464 with Zebularine + Pictilisib (first compound 31.62 µM); 0.41 with Zebularine + Pictilisib (first compound 100 µM); 1.26 in the assay with Zebularine + Pemetrexed (first compound 1 µM); 1.06 with Zebularine + Pemetrexed (first compound 3.162 µM); 0.987 with Zebularine + Pemetrexed (first compound 10 µM). Also, the values for the relative viability in the assay with Zebularine + Pemetrexed (first compound 31.62 µM) and with Zebularine + Pemetrexed (first compound 100 µM) were 1.24 and 0.824, respectively.
In the case of NCI-H1355, the relative viability came to 0.384 with BI-D1870 + Palbociclib (first compound 0.04 µM); 0.368 with BI-D1870 + Palbociclib (first compound 0.1265 µM); 0.403 in the assay with BI-D1870 + Palbociclib (first compound 0.4 µM); 0.446 in the assay with BI-D1870 + Palbociclib (first compound 1.265 µM); 0.392 in the assay with BI-D1870 + Palbociclib (first compound 4 µM); 0.848 with BI-D1870 + Alpelisib (first compound 0.04 µM). Also, the relative viability with BI-D1870 + Alpelisib (first compound 0.1265 µM) turned out to be 0.768; in the assay with BI-D1870 + Alpelisib (first compound 0.4 µM) it was 0.804; in the assay with BI-D1870 + Alpelisib (first compound 1.265 µM), 0.884; with BI-D1870 + Alpelisib (first compound 4 µM) it was 0.716; with Zebularine + Pictilisib (first compound 1 µM) it was 0.45; with Zebularine + Pictilisib (first compound 3.162 µM) it was 0.272. Moreover, the relative viability with Zebularine + Pictilisib (first compound 10 µM) came out at 0.371; with Zebularine + Pictilisib (first compound 31.62 µM), 0.426; with Zebularine + Pictilisib (first compound 100 µM), 0.254; with Zebularine + Pemetrexed (first compound 1 µM), 1.04; with Zebularine + Pemetrexed (first compound 3.162 µM), 1.02; in the assay with Zebularine + Pemetrexed (first compound 10 µM), 0.802. For the same cell line, the relative viability with Zebularine + Pemetrexed (first compound 31.62 µM) amounted to 0.623; with Zebularine + Pemetrexed (first compound 100 µM) it was 0.303.
